Experimental data taken from US12686875B2, “Small molecules for increasing precise genome editing efficiency” (Max-Planck-Gesellschaft zur Förderung der Wissenschaften …, priority 2018, dated 2026).

Assays:
[1] = system: wild-type cell line, NFASC target; test: Genome editing of NFASC target with transient NHEJ/MMEJ/SSA inhibition in a wild-type cell line; format: cell-based; settings: combination of 2 μM M3814, 320 pmol PoIQ siRNA aa765, PoIQ coding strand nicking, 5 μM 6-OH-dopa, 50 μM AICAR
Excerpt: FIG. 7: Inhibition of RAD52 dependent single strand annealing (SSA) together with MMEJ inhibition is needed to further increase HDR for rare targets with long stretches of homology. The NFASC target has an 11 bp stretch of homology. The first three bars show editing efficiencies in a wild-type cell line, a DNA-PKcs KR cell line leading to NHEJ inhibition, and a DNA-PKcs KR+PoIQ Knockout cell line leading to NHEJ and MMEJ inhibition. […] HDR, mix (HDR with indels), NHEJ, and estimated MMEJ/SSA (at least 2 bp microhomology) are indicated in green, light green, light blue, and light purple, respectively. Error bars show the SEM of at least two replicates and one experiment for the last bar.
In some cases the target for genome editing has long homology stretches around the cleavage site. […] We speculated that indel formation was carried out by the RAD52 dependent single strand annealing pathway (SSA) which uses long stretched of homology.

[2] = system: K562 cells expressing wild-type DNA-PKcs; test: Genome editing of FRMD7 with Cas9 in K562 cells, amplicon sequencing (HDR / precise genome editing efficiency); format: cell-based, human; settings: for HDR-increasing effect / precise genome editing efficiency, comparison of DNA-PKcs inhibitors: K562 cells, Cas9 induced DSB, 2 μM and 20 μM
Procedure: Cells were grown at 37° C. in a humidified incubator gassed with 5% CO2.
The recombinant A.s. Cpf1 and S.p. Cas9 protein and electroporation enhancer was ordered from IDT (Coralville, USA) and nucleofection was done using the manufacturer's protocol, except for the following alterations. […] Cells were counted using the Countess Automated Cell Counter (Invitrogen).
Incubation at 65° C. for 10 min, 68° C. for 5 min and finally 98° C. for 5 min was performed to yield ssDNA as a PCR template. […] PCR was done in a T100 Thermal Cycler (Bio-Rad) using the KAPA2G Robust PCR Kit (Peqlab, 07-KK5532-03) with supplied buffer B and 3 μl of cell extract in a total volume of 25 μl. The thermal cycling profile of the PCR was: 95° C.

[3] = system: 409B2 hiPSCs; test: Genome editing of FRMD7 with Cas9 protein in 409B2 hiPSCs; format: cell-based, human; settings: 2 μM, Cas9 induced DSB
Excerpt: FIG. 5: Comparison of the effect of DNA-PK inhibitors on genome editing efficiency. Editing efficiencies of FRMD7 with Cas9 protein and treatment with different concentrations of M3814, NU7026, and NU7441 are shown for K562 cells (A) and 409B2 hiPSCs (B). HDR, mix (HDR with indels), NHEJ, and MMEJ are indicated in green, light green, light blue and light purple, respectively. Error bars show the SEM of three replicates. A skull indicates excessive cell death of up to around 80% determined by phase contrast light microscopy.
(§1) We recently created an iCRISPR-Cas9n line from human induced pluripotent stem cells (hiPSCs) (409-B2, Riken BioResource Center) and human embryonic stem cells (hESCs) (H9) as described by Gonzalez et al. Stem cells were grown on Matrigel Matrix (Corning, 35248) in mTeSR1 medium (StemCell Technologies, 05851) with supplement (StemCell Technologies, 05852) that was replaced daily. K562 cells (ECACC, 89121407) were grown with IMDM (ThermoFisher, 12440053) supplemented with 10% FBS. Cells were grown at 37° C. in a humidified incubator gassed with 5% CO2. Media was replaced every second day for non-pluripotent cell lines. Cell cultures were maintained 4-6 days until ~80% confluency, and subcultured at a 1:6 to 1:10 dilution. Adherent cells were dissociated using EDTA (VWR, 437012C). The media was supplemented with 10 μM Rho-associated protein kinase (ROCK) inhibitor Y-27632 (Calbiochem, 688000) after cell splitting for one day in order to increase cell survival.
The recombinant A.s. Cpf1 and S.p. Cas9 protein and electroporation enhancer was ordered from IDT (Coralville, USA) and nucleofection was done using the manufacturer's protocol, except for the following alterations. […] Cells were counted using the Countess Automated Cell Counter (Invitrogen). […]

[4] = system: K562 cells; test: Resazurin assay for cell survival three days after editing; format: cell-based, human
Excerpt: FIG. 2: Cell survival of human immortalized myelogenous leukemia cells K562 cells after treatment with the small molecule M3814. Results of a resazurin assay for cell survival three days after editing are shown. Resazurin is converted into fluorescent resorfin by cellular dehydrogenases and resulting fluorescence (Excitation: 530-570 nm, Emission: 590-620 nm) is a marker for the amount of living cells. Resorfin fluorescence (610±30 nm) of cells without any treatment is set to 100% cell survival. Error bars show the SEM of three technical replicates for three technical replicates.
Cells were either seeded with or without editing reagents. The media was supplemented with or without M3814 and each condition was carried out in duplicate. After 72 h media was aspirated and 100 μl fresh media together with 10 μl resazurin solution (Cell Signaling, 11884) was added. Resazurin is converted into fluorescent resorfin by cellular dehydrogenases and resulting fluorescence (Excitation: 530-570 nm, Emission: 590-620 nm) is considered as a linear marker for cell viability (O'Brien et al. 2000). Cells were incubated with resazurin at 37° C. The redox reaction was measured every hour by fluorescence readings using a Typhoon 9410 imager (Amersham Biosciences). […] Duplicate wells with media and resazurin, but without cells, were used a blank.

[5] = system: H9 hESCs; test: Genome editing of LYPLA1 and SCAP by Cas9n double nicking in H9 hESCs-iCRISPR; format: cell-based, human; settings: M3814 for three days
Excerpt: Genome editing efficiencies of the LYPLA1 and SCAP gene in H9 hESCs-iCRISPR Cas9 nickase (Cas9n) double nicking and treatment with M3814 for three days and with DNA-PKcs K3753R cells are shown. HDR, mix (HDR with indels), NHEJ (non-homologous end joining), and MMEJ (microhomology-mediated end joining with at least two bp of microhomology) are indicated in green, light green, light blue, and light purple, respectively.
as §1, with “The media was supplemented with 10 μM Rho-associated protein kinase (ROCK) inhibitor Y-27632 (Calbiochem, 688000) after cell splitting for one day in order to increase cell survival.” left out
The recombinant A.s. […] Cells were counted using the Countess Automated Cell Counter (Invitrogen). […]

[6] = system: mouse embryos; settings: cited from earlier work
[7] = system: HEK293A cells; settings: cited from earlier work
[8] = system: rabbit embryos; settings: cited from earlier work
[9] = system: human stem cells; settings: cited from earlier work
[10] = target: human LIG4 (Homo sapiens, UniProt P49917); settings: Greco et al. 2016; cited from earlier work
[11] = system: precise genome editing (PGE); settings: SCR7 and L755507 added together with RS-1; cited from earlier work
[12] = system: polymerase theta (PoIQ); test: Genome editing efficiency with PoIQ (MMEJ) inhibition in cells with DNA-PKcs KR mutation; format: cell-based, human; settings: cells with DNA-PKcs KR mutation (NHEJ inhibited)
Procedure: FIG. 6: Inhibition of polymerase theta (PoIQ) dependent microhomology mediated end-joining (MMEJ) can further increase HDR if the target of interest is prone to MMEJ repair. All cells have inhibited NHEJ due to the DNA-PKcs KR mutation, which can be transiently achieved by M3814 in wildtype cells as well. Shown are genome editing efficiencies. Cells were treated with different amounts of siRNA against PoIQ (Dharmacon ON-TARGET plus Human POLQ (10721) siRNA-SMART pool), single nicking of the first exon of PolQ, a combination of the SMART pool and coding strand nicking, and siRNA against PoIQ binding the mRNA at the sequence corresponding to amino acid 765 of PolQ. A cell line with both DNA-PKcs KR and PoIQ knockout mutation is shown for comparison. HDR, mix (HDR with indels), NHEJ, and estimated MMEJ (at least 2 bp microhomology) are indicated in green, light green, light blue, and light purple, respectively. Error bars show the SEM of at least two replicates.
For some targets HDR is increased but a substantial portion of genome editing events however still consists of indels. These are due to the microhomology mediated end-joining (MMEJ) pathway (also referred to as alternative NHEJ) which can compete with NHEJ and serves as a back-up pathway which relies on short stretches of microhomology at the cleavage site. […]

Sequence of human LIG4 (P49917 whole entry): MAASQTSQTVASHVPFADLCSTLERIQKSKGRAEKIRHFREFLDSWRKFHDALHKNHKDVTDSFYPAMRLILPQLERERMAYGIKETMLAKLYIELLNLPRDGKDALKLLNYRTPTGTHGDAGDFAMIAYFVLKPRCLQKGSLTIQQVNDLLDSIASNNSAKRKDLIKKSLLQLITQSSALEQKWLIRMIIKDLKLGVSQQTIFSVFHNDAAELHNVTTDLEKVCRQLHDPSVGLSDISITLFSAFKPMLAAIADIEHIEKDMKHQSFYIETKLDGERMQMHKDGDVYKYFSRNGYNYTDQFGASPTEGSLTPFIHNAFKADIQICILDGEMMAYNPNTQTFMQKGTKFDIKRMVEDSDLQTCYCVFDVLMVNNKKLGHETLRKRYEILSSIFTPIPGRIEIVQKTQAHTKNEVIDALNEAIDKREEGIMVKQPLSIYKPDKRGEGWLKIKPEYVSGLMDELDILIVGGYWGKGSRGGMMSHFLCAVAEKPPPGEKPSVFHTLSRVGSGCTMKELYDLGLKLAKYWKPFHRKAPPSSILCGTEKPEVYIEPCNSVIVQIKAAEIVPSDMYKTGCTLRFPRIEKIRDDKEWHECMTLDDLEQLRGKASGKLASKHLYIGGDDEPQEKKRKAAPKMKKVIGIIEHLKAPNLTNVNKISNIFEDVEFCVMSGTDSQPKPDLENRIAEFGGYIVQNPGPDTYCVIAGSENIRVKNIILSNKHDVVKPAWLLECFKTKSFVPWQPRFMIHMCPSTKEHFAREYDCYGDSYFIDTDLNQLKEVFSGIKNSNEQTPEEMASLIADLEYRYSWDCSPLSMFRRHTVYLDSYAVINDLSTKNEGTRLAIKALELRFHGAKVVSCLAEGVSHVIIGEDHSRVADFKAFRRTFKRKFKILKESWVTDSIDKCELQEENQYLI
Sequence of human LIG4 (Q13426 whole entry partner): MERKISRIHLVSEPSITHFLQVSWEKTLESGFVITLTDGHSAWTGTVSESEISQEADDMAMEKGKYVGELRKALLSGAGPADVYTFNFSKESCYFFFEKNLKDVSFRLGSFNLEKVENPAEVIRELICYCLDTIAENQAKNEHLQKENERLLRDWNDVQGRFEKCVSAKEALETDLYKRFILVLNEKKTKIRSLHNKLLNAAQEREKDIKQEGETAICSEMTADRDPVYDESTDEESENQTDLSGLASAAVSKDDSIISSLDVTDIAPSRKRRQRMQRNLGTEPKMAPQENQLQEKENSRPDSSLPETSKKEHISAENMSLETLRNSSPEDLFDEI

## NC(=O)c1ncn([C@@H]2O[C@H](COP(=O)(O)O)[C@@H](O)[C@H]2O)c1N [AICAR, AICA ribonucleotide 5′-monophosphate]
[1]
  HDR, combined NHEJ/MMEJ/SSA inhibition: drastic HDR increase

## O=c1cc(N2CCOCC2)oc2c(-c3cccc4c3sc3ccccc34)cccc12 [NU7441]
[2]
  HDR-increasing effect / precise genome editing efficiency, comparison of DNA-PKcs inhibitors: significantly less precise genome editing efficiency
[3]
  HDR efficiencies: much lower efficiencies

## O=c1cc(N2CCOCC2)oc2c1ccc1ccccc12 [NU7026]
[2]
  HDR-increasing effect / precise genome editing efficiency, comparison of DNA-PKcs inhibitors: significantly less precise genome editing efficiency
[3]
  HDR efficiencies: much lower efficiencies

## NC(Cc1cc(O)c(O)cc1O)C(=O)O (centres unmarked) [6-hydroxy-depa, 6-hydroxy-dopa]
[1]
  HDR, combined NHEJ/MMEJ/SSA inhibition: drastic HDR increase

## COc1ccc([C@@H](O)c2cc(-c3ncnc4cc(N5CCOCC5)ccc34)c(F)cc2Cl)nn1 [M3814, Nedisertib]
[2]; K562 cells expressing wild-type DNA-PKcs, FRMD7, Cas9, transient M3814 treatment (three days), 18% without M3814
  precise genome editing / HDR efficiency: 81%
[2]
  HDR-increasing effect / precise genome editing efficiency, comparison of DNA-PKcs inhibitors: stronger HDR-increasing effect than treatment with NU7026 and NU7441
[4]
  toxicity (cell survival, resazurin assay): moderate toxicity
[5]
  HDR efficiencies compared with DNA-PKcs K3753R mutation: comparable to what is achievable by total inactivation of the DNA-PKcs catalytic active site
[3]
  HDR efficiencies: strongly increased HDR efficiencies
[1]
  HDR, combined NHEJ/MMEJ/SSA inhibition: drastic HDR increase

## O=c1[nH]c(=S)[nH]c(N=Cc2ccccc2)c1N=Cc1ccccc1 [SCR7]
[6]; from 5% without SCR7 (Maruyama et al. 2015)
  efficiency of PGE: 22.7%
[6]; other researchers
  effect on PGE: no significant effect
[7]
  effect on PGE: marginal but significant increase
[8]
  effect on PGE: no significant effect
[9]
  effect on PGE: no significant effect
[10]
  inhibitory properties on human LIG4: neither selective nor potent inhibitors
[11]
  effect on PGE when added together with RS-1, compared to RS-1 alone: no additive effect

## siRNA aa765: siRNA binding PoIQ mRNA before the sequence corresponding to the first RAD51 binding domain (SEQ ID NO: 63) (TTGGAAAATACTGTAATCATCCCTGCA; listed as DNA, chemistry not given here)
[12]
  HDR and indels with MMEJ signature, siRNA alone: high HDR
